Source: publication PMC7269146, “Jingzhaotoxin-X, a gating modifier of Kv4.2 and Kv4.3 potassium channels purified from the venom of the Chinese tarantula Chilobrachys jingzhao” (The Journal of Venomous Animals and Toxins Including …, 2020)
Where a SMILES comes first, the peptide text is derived from it. Bridges are numbered along the chain shown (N, C = ends).

Test system: Kv1.2
Experiment: microelectrode voltage-clamp, Xenopus laevis oocytes, Kv1.2
Type: cell-based
Details: 10 μM, 300-ms depolarization to +20 mV from -90 mV, pH 7.5, 19-23°C, n = 3
Procedure: Briefly, plasmids were linearized, and transcription was carried out according to the standardized protocol. Afterwards, the capped cRNAs that encoded the related ion channels were prepared. To conduct transcription in vitro, firstly, NotL was utilized to linearize plasmids pCI that contained both Kv1.1 (Accession: NM_010595.3) and Kv2.1 (Accession: AF026005.1), whereas SphI was adopted to linearize plasmid PcDNA3 containing Kv1.2 (Accession: NM_012970.3) gene. […] Thereafter, the linearized plasmids were used as the templates to synthesize cRNAs in vitro using the large-scale T7 mMESSAGE mMACHINE transcription kit (Ambion, USA).
A mature female X. laevis was placed on the ice for anesthesia, and then the Xenopus laevis oocytes at stage IV-VI were extracted. Subsequently, those extracted oocytes were treated by collagenase (1 mg/mL) contained within the calcium-depleted ND96 solution (containing 96 mM NaCl, 10 mM HEPES, 1 mM MgCl2, and 2 mM KCl) for defolliculation. […]
Firstly, the effects of JZTX-X on the isoforms of potassium channels (including Kv1.1-1.3, Kv2.1, as well as Kv4.2-4.3) contained within the X. laevis oocytes were investigated through the microelectrode voltage-clamp approach. […] We also determined the effects of JZTX-X on Ito potassium channels in rat DRG neurons; those current amplitudes were inhibited by 54.4±6.8% when 500 nM JZTX-X was applied (Fig. 3K, n = 5).

## CC(C)C[C@@H]1NC(=O)[C@H](CCCCN)NC(=O)[C@H](Cc2ccc(O)cc2)NC(=O)[C@@H]2CSSC[C@@H]3NC(=O)[C@H](Cc4ccc(O)cc4)NC(=O)[C@H](Cc4ccccc4)NC(=O)CNC(=O)[C@H](C)NC(=O)[C@H](CSSC[C@H](NC(=O)[C@@H](N)CC(C)C)C(=O)N[C@@H](CO)C(=O)N[C@@H](CCCNC(=N)N)C(=O)N[C@@H](CCC(=O)O)C(=O)NCC(=O)N[C@@H](CCC(=O)O)C(=O)N[C@@H](Cc4ccccc4)C(=O)N2)NC(=O)[C@H](CSSC[C@@H](C(=O)N[C@@H](Cc2ccc(O)cc2)C(=O)N[C@@H](CCCNC(=N)N)C(=O)N[C@@H](CC(N)=O)C(=O)O)NC(=O)[C@H](Cc2c[nH]cn2)NC(=O)[C@H](CC(C)C)NC(=O)[C@H](C(C)C)NC(=O)[C@H](Cc2ccccc2)NC(=O)[C@H](C)NC(=O)[C@H](CCCCN)NC3=O)NC(=O)[C@H](CCCCN)NC(=O)[C@H](CCCNC(=N)N)NC1=O [JZTX-X, Jingzhaotoxin-X] (H-LCSREGEFCYKLRKCCAGFYCKAFVLHCYRN-OH; disulfide 2-16, 9-21, 15-28; N-terminus assumed)
  inhibition of Kv1.2 current: less than 5%
